# Assay results from patent US7498309B2, “Pharmaceutical compositions for bioactive peptide agents” (Sangstat Medical Corporation, priority 2003, dated 2009).
# Entries after “also recorded” stand apart in the source; their conditions may differ.
# Experiments:
# [1] = test system: cynomolgus monkeys with chronic and naturally occurring colitis; assay: RDP58 capsule therapy in primates suffering from colitis (stool quality scores); assay type: in vivo; settings: for response to therapy: capsule from day 0
# Method: RDP58 oral therapy is believed to have a beneficial effect on resolution of clinical signs of chronic colitis in primates suffering from a naturally occurring colitis like condition. In these studies, RDP58 was administered in aqueous form (i.e., powder dissolved in water) by oral gavage. The objective of the pilot study described in this example was to analyze the effect of administering RDP58 in capsule form to primates suffering from a chronic, naturally occurring, colitis-like condition. Data generated from this study was compared to data obtained from previous studies where RDP58 peptide was administered in aqueous form.
# Methods. Four cynomolgus monkeys, with documented clinical histories of chronic and naturally occurring colitis, were selected for the study. All animals were monitored for 7 days before initiating therapy. Animals were dosed with one capsule (approximately 13 mg per capsule) every day, starting on Day 0, for 14 days. A commercially available cat pilling gun was used. Disease activity was monitored using stool quality scores. The scoring system used was the following: 1=Normal; 2=Loose stool; 3=Watery diarrhea; and 4=Bloody diarrhea. Response is defined as an improvement in stool quality score by at least 1 point.
# Animals were physically examined twice per day. After 14 days, RDP58 therapy was stopped and animals were monitored for 7 additional days. Stool quality was documented through this period.
# [2] = Fill formulation: solubility and dispersion of the peptide in Labrafil M 1944 CS; assay type: physicochemical
# Method: Fill Formulation. […] The RDP58 peptide was not soluble in Labrafil M 1944 CS, thus a stable suspension of the peptide was made using Colloidal Silicon Dioxide, USP (Aerosil 300) as a suitable dispersing agent. Bench trials were performed to determine the needed quantity of Aerosil 300, which would provide a sufficient viscosity increase to maintain the peptide uniformly suspended for a minimum of 24 hours while allowing the fill formulation to remain flowable or pumpable. The fill formulation for the a 100 mg RDP58 softgel capsule is the following: […]
# [3] = test system: cynomolgus monkeys with chronic and naturally occurring colitis; assay: RDP58 capsule therapy in primates suffering from colitis (stool quality scores); assay type: in vivo; settings: animal MCY33636; capsule from day 0, treatment extended to day 21
# [4] = all animals studied, oral capsule
structure (smiles),measurement,setting,value
"CCCC[C@@H](NC(=O)[C@H](N)CCCNC(=N)N)C(=O)N[C@H](CCCC)C(=O)N[C@H](CCCC)C(=O)N[C@H](CCCNC(=N)N)C(=O)N[C@H](CCCC)C(=O)N[C@H](CCCC)C(=O)N[C@H](CCCC)C(=O)NCC(=O)N[C@H](Cc1ccc(O)cc1)C(N)=O [RDP58, NH2-(D)Arg-(D)nL-(D)nL-(D)nL-(D)Arg-(D)nL-(D)nL-(D)nL-Gly-(D)Tyr-NH2]",negative side effects,[1]; [4],None of the animals studied showed negative side effects
same,tolerability of dosing,[1]; [4],well tolerated
same,effect on disease activity / therapeutic response,"[1]; all four animals, one capsule (approximately 13 mg) orally every day for 14 days, stool quality scores",positive effects; also recorded: positive therapeutic response
same,response to therapy,[1]; animal 33558,immediate response
same,response to re-treatment,"[1]; animal 33558, re-treated starting on day 23",Response to therapy was immediate
same,time animal remained normal after therapy was stopped,"[1]; animal 33558, therapy stopped on day 14",4 to 5 days
same,response to therapy,[1]; animal MCY33560,immediate response
same,duration of normal stool quality,[1]; animal MCY33636,8 days
same,response to therapy,[1]; animal MCY33639,immediate positive response
same,response to re-treatment,"[1]; animal MCY33639, re-treated on day 23",immediate positive response
same,dispersion of the peptide,[2]; in Labrafil M 1944 CS,enhanced dispersion
same,solubility in Labrafil M 1944 CS,[2]; suspending agent Labrafil M 1944 CS,not soluble
same,response to therapy,[3],response was immediate
